Laboratory results from US20100137313A1 (ASTRAZENECA AB, priority 2008, published 2010).

These compounds were tested against S. pneumoniae Topoisomerase IV ATPase (ParE) (Streptococcus pneumoniae serotype 4, UniProt Q59961) (assay: S. pneumoniae Topoisomerase IV ATPase inhibition). Details: values marked * are an average of two or more data points, read-out: % Inh (13 μM) of S. pneumoniae Topoisomerase IV ATPase.
Format: biochemical
Method in brief: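 Malachite green/ammonium molybdate phosphate detection, A650. 1.25 nM ParE, 160 μM ATP, sheared salmon sperm DNA 5 μg/ml, 20 mM Tris pH 8.0, 8.0 mM MgCl2. Controls: 2% DMSO = 0%, 20 μM EDTA = 100% inhibition; IC50 over 10 concentrations.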

S. pneumoniae Topoisomerase IV ATPase (ParE), sequence (Q59961 whole entry): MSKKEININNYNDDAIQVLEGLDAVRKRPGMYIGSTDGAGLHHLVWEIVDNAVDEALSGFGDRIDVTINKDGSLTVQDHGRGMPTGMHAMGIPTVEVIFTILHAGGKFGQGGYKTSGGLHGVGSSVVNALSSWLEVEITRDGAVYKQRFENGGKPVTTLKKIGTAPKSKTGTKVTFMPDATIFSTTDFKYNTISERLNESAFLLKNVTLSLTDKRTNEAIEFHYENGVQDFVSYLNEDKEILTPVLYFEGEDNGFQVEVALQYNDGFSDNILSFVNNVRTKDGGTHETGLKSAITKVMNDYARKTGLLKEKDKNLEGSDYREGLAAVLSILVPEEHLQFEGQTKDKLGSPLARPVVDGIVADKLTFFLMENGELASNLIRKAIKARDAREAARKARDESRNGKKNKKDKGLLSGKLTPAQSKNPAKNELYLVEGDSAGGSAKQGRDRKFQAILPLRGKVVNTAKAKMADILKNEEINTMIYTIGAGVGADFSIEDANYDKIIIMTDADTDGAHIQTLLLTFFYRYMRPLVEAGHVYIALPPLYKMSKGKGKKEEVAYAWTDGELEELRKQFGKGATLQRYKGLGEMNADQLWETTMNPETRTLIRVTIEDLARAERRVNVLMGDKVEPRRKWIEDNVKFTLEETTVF

Point of comparison: CCOC(=O)c1cncc(-c2cnc(Nc3ccc(F)c(Cl)c3)nc2N2CCC(C(=O)NC)CC2)c1 [Example 120, ethyl 5-[2-[(3-chloro-4-fluorophenyl)amino]-4-[4-(methylcarbamoyl)piper-idin-1-yl]pyrimidin-5-yl]pyridine-3-carboxylate], inhibition at 13 µM 73.9%. Against it:
- COc1cc(Nc2ncc(-c3cnc(OC)c(C(=O)NS(=O)(=O)CCCN4CCOCC4)c3)c(-n3nc(C(F)(F)F)cc3C)n2)cc(OC)c1 [Example 821, 5-{2-[(3,5-dimethoxyphenyl)amino]-4-[5-methyl-3-(trifluoromethyl)-1H-pyrazol-1-yl]pyrimidin-5-yl}-2-methoxy-N-{[3-(morpholin-4-yl)propyl]sulfonyl}pyridine-3-carboxamide] — higher, 100%
- COc1cc(Nc2ncc(-c3cnc(OC)c(C(=O)NS(C)(=O)=O)c3)c(-n3nc(C(F)(F)F)cc3C)n2)cc(C(F)(F)F)c1 [Example 902, 2-methoxy-5-(2-(3-methoxy-5-(trifluoromethyl)phenylamino)-4-(5-methyl-3-(trifluoromethyl)-1H-pyrazol-1-yl)pyrimidin-5-yl)-N-(methylsulfonyl)nicotinamide] — higher, 97%
- CCOC(=O)c1cncc(-c2cnc(Nc3ccc(F)c(Cl)c3)nc2N2CCN(C(C)=O)CC2)c1 [Example 142, ethyl 5-(4-(4-acetylpiperazin-1-yl)-2-(3-chloro-4-fluorophenylamino)pyrimidin-5-yl)nicotinate] — higher, 86.2%
- COc1cc(Nc2ncc(-c3cncc(C(=O)NS(C)(=O)=O)c3)c(-n3nc(C(F)(F)F)cc3C)n2)cc(OC)c1 [Example 687, 5-{2-[(3,5-dimethoxyphenyl)amino]-4-[5-methyl-3-(trifluoromethyl)-1H-pyrazol-1-yl]pyrimidin-5-yl}-N-(methylsulfonyl)pyridine-3-carboxamide] — higher, 100%
- CCOC(=O)c1cncc(-c2cnc(Nc3ccc(F)c(Cl)c3)nc2N2CCOCC2)c1 [Example 144, ethyl 5-(2-(3-chloro-4-fluorophenylamino)-4-morpholinopyrimidin-5-yl)nicotinate] — higher, 76.4%
- COc1cc(Nc2ncc(-c3cnc(OC)c(C(=O)NS(=O)(=O)C(C)C)c3)c(-n3nc(C(F)(F)F)cc3C)n2)cc(OC)c1 [Example 819, 5-{2-[(3,5-dimethoxyphenyl)amino]-4-[5-methyl-3-(trifluoromethyl)-1H-pyrazol-1-yl]pyrimidin-5-yl}-2-methoxy-N-(propan-2-ylsulfonyl)pyridine-3-carboxamide] — higher, 100%
- CCOC(=O)CNc1nc(Nc2ccc(F)c(Cl)c2)ncc1-c1cncnc1 [Example 54, ethyl 2-[[2-[(3-chloro-4-fluorophenyl)amino]-5-pyrimidin-5-ylpyrimidin-4-yl]amino]acetate] — higher, 77.5%
- Cc1cc(C(F)(F)F)nn1-c1nc(Nc2ccc(F)c(Cl)c2)ncc1-c1ccc2c(c1)C(=O)NC2=O [Example 1042, 5-(2-(3-Chloro-4-fluorophenylamino)-4-(5-methyl-3-(trifluoromethyl)-1H-pyrazol-1-yl)pyrimidin-5-yl)isoindoline-1,3-dione] — lower, 49%
- O=C(O)c1cncc(-c2cnc(Nc3cccc(F)c3)nc2-n2ccc(C(F)(F)F)n2)c1 [Example 641, 5-{2-[(3-fluorophenyl)amino]-4-[3-(trifluoromethyl)-1H-pyrazol-1-yl]pyrimidin-5-yl}pyridine-3-carboxylic acid] — higher, 100%
- COc1cc(Nc2ncc(-c3cnc(N(C)C)c(C(=O)O)c3)c(-n3ccc(C(F)(F)F)n3)n2)cc(OC)c1 [Example 587, 5-(2-(3,5-dimethoxyphenylamino)-4-(3-(trifluoromethyl)-1H-pyrazol-1-yl)pyrimidin-5-yl)-2-(dimethylamino)nicotinic acid] — higher, 100%
- COc1cc(Nc2ncc(-c3cnc(OC)c(C(=O)NS(=O)(=O)CC(F)(F)F)c3)c(-n3nc(C(F)(F)F)cc3C)n2)cc(OC)c1 [Example 835, 5-{2-[(3,5-dimethoxyphenyl)amino]-4-[5-methyl-3-(trifluoromethyl)-1H-pyrazol-1-yl]pyrimidin-5-yl}-2-methoxy-N-[(2,2,2-trifluoroethyl)sulfonyl]pyridine-3-carboxamide] — higher, 95%
- Cc1cc(C(F)(F)F)nn1-c1nc(Nc2cc(F)cc(C#N)c2)ncc1-c1cncc(C(=O)O)c1 [Example 1121, 5-(2-(3-cyano-5-fluorophenylamino)-4-(5-methyl-3-(trifluoromethyl)-1H-pyrazol-1-yl)pyrimidin-5-yl)nicotinic acid] — higher, 99%
- COc1ncc(-c2cnc(Nc3cc(C)cc(C)c3)nc2-n2ccc(C(F)(F)F)n2)cc1C(=O)NS(C)(=O)=O [Example 898, 5-(2-(3,5-dimethylphenylamino)-4-(3-(trifluoromethyl)-1H-pyrazol-1-yl)pyrimidin-5-yl)-2-methoxy-N-(methylsulfonyl)nicotinamide] — higher, 100%
- Cc1noc(CCNC(=O)c2cncc(-c3cnc(Nc4ccc(F)c(Cl)c4)nc3-n3nc(C(F)(F)F)cc3C)c2)n1 [Example 929, 5-(2-(3-chloro-4-fluorophenylamino)-4-(5-methyl-3-(trifluoromethyl)-1H-pyrazol-1-yl)pyrimidin-5-yl)-N-(2-(3-methyl-1,2,4-oxadiazol-5-yl)ethyl)nicotinamide] — higher, 82%
- COc1cc(Nc2ncc(-c3cnc(OC)c(C(=O)NS(=O)(=O)c4cn(C)c(=O)n(C)c4=O)c3)c(-n3nc(C(F)(F)F)cc3C)n2)cc(OC)c1 [Example 847, 5-{2-[(3,5-dimethoxyphenyl)amino]-4-[5-methyl-3-(trifluoromethyl)-1H-pyrazol-1-yl]pyrimidin-5-yl}-N-[(1,3-dimethyl-2,4-dioxo-1,2,3,4-tetrahydropyrimidin-5-yl)sulfonyl]-2-methoxypyridine-3-carboxamide] — higher, 97%
- CCOC(=O)/C=C/c1cccc(-c2cnc(Nc3cc(C)c(Cl)cc3OC)nc2NCCCN(C)C)c1 [Example 343, (E)-ethyl 3-(3-(2-(4-chloro-2-methoxy-5-methylphenylamino)-4-(3-(dimethylamino)propylamino)pyrimidin-5-yl)phenyl)acrylate] — lower, -22.3%
- CN1CCN(c2nc(Nc3ccc(F)c(Cl)c3)ncc2-c2cccc(/C=C/C(=O)O)c2)CC1 [Example 301, (E)-3-(3-(2-(3-chloro-4-fluorophenylamino)-4-(4-methylpierazin-1-yl)pyrimidin-5-yl)phenyl)acrylic acid] — lower, 72.2%
- O=C(NCCO)c1cccc(-c2cnc(Nc3ccc(F)c(Cl)c3)nc2-n2ccc(C(F)(F)F)n2)c1 [Example 1146, 3-(2-(3-chloro-4-fluorophenylamino)-4-(3-(trifluoromethyl)-1H-pyrazol-1-yl)pyrimidin-5-yl)-N-(2-hydroxyethyl)benzamide] — higher, 100%
- Fc1ccc(Nc2ncc(-c3cncnc3)c(NCc3cccnc3)n2)cc1Cl [Example 39, N^2-(3-chloro-4-fluorophenyl)-N^4-(pyridin-3-ylmethyl)-5-pyrimidin-5-ylpyrimidine-2,4-diamine] — lower, 63%
- COCCn1cc(-c2cnc(Nc3cc(OC)cc(OC)c3)nc2-n2nc(C(F)(F)F)cc2C)cc(C(=O)O)c1=O [Example 1160, 5-(2-(3,5-dimethoxyphenylamino)-4-(5-methyl-3-(trifluoromethyl)-1H-pyrazol-1-yl)pyrimidin-5-yl)-1-(2-methoxyethyl)-2-oxo-1,2-dihydropyridine-3-carboxylic acid] — higher, 100%
